Consider two compounds from publication PMC5688144, “Assay interference and off-target liabilities of reported histone acetyltransferase inhibitors” (Nature Communications, 2017).

The target in one data set is T1, human La antigen (Homo sapiens, UniProt P05455, T302N).
T1 construct: amino acids 100–324 of the human La antigen (plus T302N mutation); 6xHis (N); 6xHis (C); host or cells: Escherichia coli Rosetta cells
T1 sequence (P05455 100-324 T302N): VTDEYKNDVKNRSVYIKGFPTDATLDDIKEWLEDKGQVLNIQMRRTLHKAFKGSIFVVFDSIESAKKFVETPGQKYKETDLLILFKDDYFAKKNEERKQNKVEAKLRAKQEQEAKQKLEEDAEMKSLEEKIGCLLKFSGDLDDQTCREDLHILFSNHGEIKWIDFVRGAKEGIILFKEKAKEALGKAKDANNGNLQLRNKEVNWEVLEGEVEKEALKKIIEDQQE
As to the kind of experiment: ALARM NMR. It is filed as binding. Particulars: 400 μM compound; for ALARM NMR, (-) DTT: 0 mM DTT; for ALARM NMR, (+) DTT: DTT present; for ALARM NMR interpretation: with and without DTT. From the text:
The gene encoding amino acids 100–324 of the human La antigen (plus T302N mutation) was cloned into pET28b + vector (Novagen) with both an N- and C-terminal 6xHis tag (addgene.org, plasmid ID 90209). The sequence identity of the ALARM NMR plasmid construct was verified by Sanger sequencing of the transgene region and next-generation sequencing of the whole plasmid.
Plasmid was transformed into Escherichia coli Rosetta cells (Novagen) and cultured in M9 minimal media. The La antigen was labeled by adding ^13C-labeled amino acid precursors ([3-^13C]-α-ketobutyrate and [3,3′-^13C]-α-ketoisovalerate sodium salts; Cambridge Isotope Laboratories; 250 mg L^−1 final concentrations) to culture medium 30 min before induction with IPTG (1 mM final concentration). Bacteria were collected after incubation at 25 °C for 8 h and washed with ice-cold phosphate-buffered saline (PBS). Washed cells were lysed by French press in ice-cold lysis buffer (50 mM Tris, pH 7.6, 300 mM NaCl, 10% glycerol (v/v), 5 mM β-mercaptoethanol (BME), 5 mM imidazole, 2 mM MgCl2, benzonase, and protease inhibitor cocktail), followed by an additional brief sonication step (3 × 15 s pulse sequence) on ice. This lysed solution was centrifuged (30,000×g for 30 min, two cycles) to remove cellular debris, then loaded onto a pre-washed Ni-NTA bead column (Qiagen) kept at 4 °C and washed with buffer (50 mM Tris, pH 7.6, 300 mM NaCl, 10% glycerol (v/v), 5 mM BME, 5 mM imidazole). The La antigen was eluted with an elution buffer (50 mM Tris, pH 7.6, 300 mM NaCl, 10% glycerol (v/v), 5 mM BME, imidazole gradient ranging from 5 mM to 0.5 M). […] Aliquots were flash-frozen in liquid N2 and stored at −80 °C until further use. Before use, aliquots of ~150 μM protein were incubated in the presence of 20 mM DTT at 37 °C for 1 h, then dialyzed (25 mM sodium phosphate buffer, pH 7.0 (no DTT)) in 16 h cycles at 4 °C with constant nitrogen bubbling and with gentle stirring, for three total buffer cycles.
For standard testing conditions, the [^1H-^13C]-HMQC spectra were acquired in 25 mM sodium phosphate buffer, pH 7.0, 10% D2O (v/v; CIL) ± 400 μM test compounds delivered from the aforementioned stock solutions, and ± 20 mM non-deuterated DTT. Final concentration of DMSO was 4.0% (v/v). Reaction solutions were mixed, then centrifuged for 5 min (1000×g) in non-binding 384-well microplates at RT, then incubated at 37 °C for 1 h and then 30 °C for 15 h before obtaining spectra. Samples were checked for evidence of gross precipitation. Data were recorded at 298 K on a Bruker UltraShield 700 MHz NMR spectrometer equipped with a Bruker 1.7 mm TCI Cryoprobe and Bruker SampleJet autosampler. Samples were tested at 50 μM protein concentrations using 16 scans, 2048 complex points in F2, and 80 points in F1 using standard protein [^1H-^13C]-HMQC and water suppression pulse sequences.
Data were analyzed in TopSpin™ 3.5 (Bruker). Reactions were normalized to equivalent DMSO controls. Non-reactive compounds were identified by the absence of chemical shifts or changes in peak intensities (^13C-methyl) ± 20 mM DTT.

The nature of data set [1]: UPLC-MS gross compound stability in assay buffer. Particulars: 25 mM sodium phosphate, pH 7.0, 30 °C, no GSH or CoA. The method, then:
Select compounds were incubated up to 24 h for additional stability analyses. Chromatograms and mass spectra were qualitatively analyzed for the formation of new peaks and/or loss of parent peaks.

For data set [2], the target named is MOZ. Further details: method as in ref 26 (Supplementary References). Particulars: original report; ref 26 (Supplementary References); cited from earlier work.
A short description of the next data set: Absorbance spectra. Type of data set: physicochemical. Particulars: 25 mM sodium phosphate, pH 7.0. Here is the method:
Selected test compounds were assessed for absorption between 300 and 750 nm. Most compound absorption spectra were obtained at 100, 50, and 10 μM final compound concentrations in ALARM NMR buffer (25 mM sodium phosphate, pH 7.0). Final concentration of DMSO was constant at 2.0% (v/v). Compounds were allowed to incubate at RT in buffer for 10 min in UV-transparent polystyrene 384-well plates. Absorbance spectra were then obtained on a SpectraMax M3 or BMG Labtech CLARIOstar microplate reader at 25 °C. Significant absorbance was defined as molar absorptivity constants greater than 2000 M^−1 cm^−1 at wavelengths greater than 300 nm.

Another data set concerns the target T2, AmpC β-lactamase (Escherichia coli, UniProt P00811).
T2 construct: Recombinant E. coli AmpC (amino acids 20–377); purchased MyBioSource.com
As to the kind of experiment: biochemical. Further details: species or system E. coli. Particulars: 10 μM compound; ± 0.01% Triton X-100. The method, then: Selected compounds were assessed for aggregation using a modified AmpC β-lactamase counter-screen[24],[32],[64]. Recombinant E. coli AmpC (amino acids 20–377) was obtained from MyBioSource.com. Testing was performed in ALARM NMR buffer (25 mM sodium phosphate, pH 7.0) in flat-bottom UV-transparent 96-well microplates in 150 μL reaction volumes. Compounds were tested in triplicate at 10 μM final concentrations in either the presence or absence of freshly-prepared 0.01% Triton X-100 (v/v). Final concentration of DMSO was 2.0% (v/v). Compounds were incubated with ~5 nM AmpC in 147 μL reaction buffer for 5 min at RT, followed by the addition of 3 μL of nitrocefin substrate (100 μM final concentration). Reaction solutions were gently mixed by pipetting up and down three times using a multichannel pipette. […] Percent activity was normalized to DMSO-only controls. Fluconazole and lidocaine were included as negative aggregation control compounds. Rottlerin was included as a positive aggregation control compound. Aggregators were defined as compounds with significant detergent-dependent changes in AmpC activity (t-test, adjusted P-value <0.05; mean differences greater than 30%). Activators were defined as compounds that increased AmpC enzymatic activity.

Data set [3] concerns the target MOZ. Particulars: original report; ref 26 (Supplementary References); cited from earlier work.
The next data set relates to MOF. Also noted: method as in ref 19, 26 (Supplementary References). Particulars: original report; 26 (Supplementary References); cited from earlier work.
The target of the next data set is T3, PCAF (Homo sapiens, UniProt Q92831).
T3 construct: Reaction Biology Corporation (assays run by this contract lab)
To be noted: original report; 27 (Supplementary References); cited from earlier work.

The subject of another data set is p300/CBP. Particulars: original report; 27 (Supplementary References); cited from earlier work.
Details of data set [4]: method as in not given. Particulars: noted in discussion; ref not given; cited from earlier work.

A value given as a limit tells only on which side of the number the result lay.

`N#Cc1c2ccc(N)cc2nc2cc(N)ccc12` [Compound 22, CTx-1]: on human La antigen, the “ALARM NMR, (-) DTT” value was “Negative”; the “ALARM NMR, (+) DTT” value is “Negative”; the “ALARM NMR interpretation” value is “Inert as tested”. In data set [1], the “UPLC-MS buffer stability counter-screen” value was “Grossly stable”. In addition, the dissociation constant (Kd) at MOZ [2] is 380 nM. Further, the “Absorption max (nm)” value in “Absorbance spectra” is “Nominal”. Moreover, the Absorbance counter-screen result in the data set “Absorbance spectra” (300-750 nm) is “Negative”. Also, at AmpC β-lactamase, the AmpC aggregation counter-screen result is recorded as “Detergent-insensitive”. Moreover, the Ki on MOZ [3] is 2400 nM. Moreover, the half-maximal inhibitory concentration (IC50) with MOF is more than 100 µM. The IC50 on PCAF is more than 100 µM.

Take `CC(=O)N[C@H](CCCCNC(=O)CSCCNC(=O)CCNC(=O)C(O)C(C)(C)COP(=O)(O)OP(=O)(O)OC[C@H]1O[C@@H](n2cnc3c(N)ncnc32)[C@H](O)[C@@H]1OP(=O)(O)O)C(N)=O` (stereo partly shown) [Compound 23, Lys-CoA]: on human La antigen, the “ALARM NMR, (-) DTT” value is listed as “Negative”; the “ALARM NMR, (+) DTT” value is recorded as “Negative”; the “ALARM NMR interpretation” value is given as “Inert as tested”. The “ALARM NMR readout” value at human La antigen (overall readout) was “negative”. For the same compound, the AmpC aggregation counter-screen entry at AmpC β-lactamase was “Detergent-insensitive”. The IC50 in the data set with p300/CBP is 0.5 µM. For the same compound, the cell permeability entry in data set [4] is reported as “cell-impermeable”. Besides, the 50% inhibitory concentration (IC50) at PCAF was 200 µM.
